Assay results reported in the NIST ThermoML archive (doi:10.1021/je101361u).
Numbers after ± are expanded uncertainties.

Assay: xn = mol fraction of the nth substance listed
Conditions: 101.3 kPa, Liquid, Vibrating tube method

For `COCCOCCOC` [2,5,8-trioxanonane] + ClCCCl, the mass density (283.15 K, x2 = 0.0252) was 958.22 ± 0.25 kg/m3, the mass density (283.15 K, x2 = 0.0508) was 963.01 ± 0.24 kg/m3 and the mass density (283.15 K, x2 = 0.0751) was 967.64 ± 0.24 kg/m3. For the same compound, the mass density (283.15 K, x2 = 0.1) was 972.47 ± 0.23 kg/m3, the mass density (283.15 K, x2 = 0.1502) was 982.62 ± 0.22 kg/m3 and the mass density (283.15 K, x2 = 0.1999) was 993.12 ± 0.22 kg/m3. The mass density (283.15 K, x2 = 0.25) was 1004.25 ± 0.21 kg/m3, the mass density (283.15 K, x2 = 0.3002) was 1015.91 ± 0.21 kg/m3 and the mass density (283.15 K, x2 = 0.3501) was 1028.01 ± 0.21 kg/m3. It also gave a mass density (283.15 K, x2 = 0.4) of 1040.79 ± 0.22 kg/m3, a mass density (283.15 K, x2 = 0.45) of 1054.2 ± 0.22 kg/m3 and a mass density (283.15 K, x2 = 0.5003) of 1068.49 ± 0.22 kg/m3. For the same compound, the mass density (283.15 K, x2 = 0.5499) was 1083.31 ± 0.23 kg/m3, the mass density (283.15 K, x2 = 0.5999) was 1098.98 ± 0.24 kg/m3 and the mass density (283.15 K, x2 = 0.6501) was 1115.77 ± 0.25 kg/m3. It also gave a mass density (283.15 K, x2 = 0.7) of 1133.3 ± 0.26 kg/m3, a mass density (283.15 K, x2 = 0.75) of 1151.98 ± 0.27 kg/m3 and a mass density (283.15 K, x2 = 0.8) of 1172.08 ± 0.28 kg/m3. The mass density (283.15 K, x2 = 0.8499) was 1193.31 ± 0.3 kg/m3, the mass density (283.15 K, x2 = 0.9) was 1216.25 ± 0.31 kg/m3 and the mass density (283.15 K, x2 = 0.925) was 1228.27 ± 0.33 kg/m3. The mass density (283.15 K, x2 = 0.9494) was 1240.66 ± 0.34 kg/m3, the mass density (283.15 K, x2 = 0.975) was 1253.89 ± 0.34 kg/m3 and the mass density (288.15 K, x2 = 0) was 948.72 ± 0.23 kg/m3. The mass density (288.15 K, x2 = 0.0252) was 953.25 ± 0.25 kg/m3, the mass density (288.15 K, x2 = 0.0508) was 958.01 ± 0.24 kg/m3 and the mass density (288.15 K, x2 = 0.0751) was 962.62 ± 0.24 kg/m3. It also gave a mass density (288.15 K, x2 = 0.1) of 967.4 ± 0.23 kg/m3, a mass density (288.15 K, x2 = 0.1502) of 977.49 ± 0.22 kg/m3 and a mass density (288.15 K, x2 = 0.1999) of 987.92 ± 0.22 kg/m3. For the same compound, the mass density (288.15 K, x2 = 0.25) was 998.97 ± 0.21 kg/m3, the mass density (288.15 K, x2 = 0.3002) was 1010.56 ± 0.21 kg/m3 and the mass density (288.15 K, x2 = 0.3501) was 1022.59 ± 0.21 kg/m3. For the same compound, the mass density (288.15 K, x2 = 0.4) was 1035.28 ± 0.21 kg/m3, the mass density (288.15 K, x2 = 0.45) was 1048.58 ± 0.22 kg/m3 and the mass density (288.15 K, x2 = 0.5003) was 1062.78 ± 0.22 kg/m3. It also gave a mass density (288.15 K, x2 = 0.5499) of 1077.45 ± 0.23 kg/m3, a mass density (288.15 K, x2 = 0.5999) of 1093.07 ± 0.23 kg/m3 and a mass density (288.15 K, x2 = 0.6501) of 1109.73 ± 0.24 kg/m3. It also gave a mass density (288.15 K, x2 = 0.7) of 1127.26 ± 0.25 kg/m3, a mass density (288.15 K, x2 = 0.75) of 1145.68 ± 0.27 kg/m3 and a mass density (288.15 K, x2 = 0.8) of 1165.61 ± 0.28 kg/m3. For the same compound, the mass density (288.15 K, x2 = 0.8499) was 1186.69 ± 0.3 kg/m3, the mass density (288.15 K, x2 = 0.9) was 1209.44 ± 0.31 kg/m3 and the mass density (288.15 K, x2 = 0.925) was 1221.36 ± 0.33 kg/m3. It also gave a mass density (288.15 K, x2 = 0.9494) of 1233.66 ± 0.34 kg/m3, a mass density (288.15 K, x2 = 0.975) of 1246.79 ± 0.34 kg/m3 and a mass density (293.15 K, x2 = 0.0252) of 948.26 ± 0.25 kg/m3. It also gave a mass density (293.15 K, x2 = 0.0508) of 952.99 ± 0.24 kg/m3, a mass density (293.15 K, x2 = 0.0751) of 957.57 ± 0.24 kg/m3 and a mass density (293.15 K, x2 = 0.1) of 962.33 ± 0.23 kg/m3. The mass density (293.15 K, x2 = 0.1502) was 972.35 ± 0.22 kg/m3, the mass density (293.15 K, x2 = 0.1999) was 982.7 ± 0.22 kg/m3 and the mass density (293.15 K, x2 = 0.25) was 993.69 ± 0.21 kg/m3. It also gave a mass density (293.15 K, x2 = 0.3002) of 1005.2 ± 0.21 kg/m3, a mass density (293.15 K, x2 = 0.3501) of 1017.14 ± 0.21 kg/m3 and a mass density (293.15 K, x2 = 0.4) of 1029.75 ± 0.21 kg/m3. For the same compound, the mass density (293.15 K, x2 = 0.45) was 1042.96 ± 0.21 kg/m3, the mass density (293.15 K, x2 = 0.5003) was 1057.05 ± 0.22 kg/m3 and the mass density (293.15 K, x2 = 0.5499) was 1071.62 ± 0.22 kg/m3. For the same compound, the mass density (293.15 K, x2 = 0.5999) was 1087.13 ± 0.23 kg/m3, the mass density (293.15 K, x2 = 0.6501) was 1103.67 ± 0.24 kg/m3 and the mass density (293.15 K, x2 = 0.7) was 1121.07 ± 0.25 kg/m3. For the same compound, the mass density (293.15 K, x2 = 0.75) was 1139.34 ± 0.26 kg/m3, the mass density (293.15 K, x2 = 0.8) was 1159.12 ± 0.28 kg/m3 and the mass density (293.15 K, x2 = 0.8499) was 1180.04 ± 0.29 kg/m3. For the same compound, the mass density (293.15 K, x2 = 0.9) was 1202.6 ± 0.31 kg/m3, the mass density (293.15 K, x2 = 0.925) was 1214.42 ± 0.32 kg/m3 and the mass density (293.15 K, x2 = 0.9494) was 1226.62 ± 0.33 kg/m3. It also gave a mass density (293.15 K, x2 = 0.975) of 1239.64 ± 0.34 kg/m3, a mass density (298.15 K, x2 = 0.0252) of 943.26 ± 0.25 kg/m3 and a mass density (298.15 K, x2 = 0.0508) of 947.97 ± 0.24 kg/m3. For the same compound, the mass density (298.15 K, x2 = 0.0751) was 952.52 ± 0.24 kg/m3, the mass density (298.15 K, x2 = 0.1) was 957.24 ± 0.23 kg/m3 and the mass density (298.15 K, x2 = 0.1502) was 967.19 ± 0.22 kg/m3. The mass density (298.15 K, x2 = 0.1999) was 977.48 ± 0.22 kg/m3, the mass density (298.15 K, x2 = 0.25) was 988.39 ± 0.21 kg/m3 and the mass density (298.15 K, x2 = 0.3002) was 999.83 ± 0.2 kg/m3. For the same compound, the mass density (298.15 K, x2 = 0.3501) was 1011.69 ± 0.2 kg/m3, the mass density (298.15 K, x2 = 0.4) was 1024.2 ± 0.21 kg/m3 and the mass density (298.15 K, x2 = 0.45) was 1037.32 ± 0.21 kg/m3. The mass density (298.15 K, x2 = 0.5003) was 1051.31 ± 0.22 kg/m3, the mass density (298.15 K, x2 = 0.5499) was 1065.77 ± 0.22 kg/m3 and the mass density (298.15 K, x2 = 0.5999) was 1081.17 ± 0.23 kg/m3. It also gave a mass density (298.15 K, x2 = 0.6501) of 1097.58 ± 0.24 kg/m3, a mass density (298.15 K, x2 = 0.7) of 1114.85 ± 0.25 kg/m3 and a mass density (298.15 K, x2 = 0.75) of 1132.98 ± 0.26 kg/m3. The mass density (298.15 K, x2 = 0.8) was 1152.61 ± 0.27 kg/m3, the mass density (298.15 K, x2 = 0.8499) was 1173.37 ± 0.29 kg/m3 and the mass density (298.15 K, x2 = 0.9) was 1195.74 ± 0.3 kg/m3. For the same compound, the mass density (298.15 K, x2 = 0.925) was 1207.47 ± 0.32 kg/m3, the mass density (298.15 K, x2 = 0.9494) was 1219.57 ± 0.33 kg/m3 and the mass density (298.15 K, x2 = 0.975) was 1232.47 ± 0.33 kg/m3. It also gave a mass density (303.15 K, x2 = 0.0252) of 938.26 ± 0.25 kg/m3, a mass density (303.15 K, x2 = 0.0508) of 942.93 ± 0.24 kg/m3 and a mass density (303.15 K, x2 = 0.0751) of 947.45 ± 0.24 kg/m3. For the same compound, the mass density (303.15 K, x2 = 0.1) was 952.14 ± 0.23 kg/m3, the mass density (303.15 K, x2 = 0.1502) was 962.02 ± 0.22 kg/m3 and the mass density (303.15 K, x2 = 0.1999) was 972.24 ± 0.22 kg/m3. It also gave a mass density (303.15 K, x2 = 0.25) of 983.08 ± 0.21 kg/m3, a mass density (303.15 K, x2 = 0.3002) of 994.44 ± 0.2 kg/m3 and a mass density (303.15 K, x2 = 0.3501) of 1006.21 ± 0.2 kg/m3. The mass density (303.15 K, x2 = 0.4) was 1018.64 ± 0.2 kg/m3, the mass density (303.15 K, x2 = 0.45) was 1031.66 ± 0.21 kg/m3 and the mass density (303.15 K, x2 = 0.5003) was 1045.56 ± 0.21 kg/m3. The mass density (303.15 K, x2 = 0.5499) was 1059.91 ± 0.22 kg/m3, the mass density (303.15 K, x2 = 0.5999) was 1075.19 ± 0.23 kg/m3 and the mass density (303.15 K, x2 = 0.6501) was 1091.48 ± 0.24 kg/m3. The mass density (303.15 K, x2 = 0.7) was 1108.62 ± 0.24 kg/m3, the mass density (303.15 K, x2 = 0.75) was 1126.61 ± 0.26 kg/m3 and the mass density (303.15 K, x2 = 0.8) was 1146.07 ± 0.27 kg/m3. It also gave a mass density (303.15 K, x2 = 0.8499) of 1166.67 ± 0.29 kg/m3, a mass density (303.15 K, x2 = 0.9) of 1188.86 ± 0.3 kg/m3 and a mass density (303.15 K, x2 = 0.925) of 1200.48 ± 0.32 kg/m3. For the same compound, the mass density (303.15 K, x2 = 0.9494) was 1212.48 ± 0.33 kg/m3, the mass density (303.15 K, x2 = 0.975) was 1225.28 ± 0.33 kg/m3 and the mass density (308.15 K, x2 = 0.0252) was 933.23 ± 0.25 kg/m3. It also gave a mass density (308.15 K, x2 = 0.0508) of 937.88 ± 0.24 kg/m3, a mass density (308.15 K, x2 = 0.0751) of 942.36 ± 0.24 kg/m3 and a mass density (308.15 K, x2 = 0.1) of 947.02 ± 0.23 kg/m3. For the same compound, the mass density (308.15 K, x2 = 0.1502) was 956.85 ± 0.22 kg/m3, the mass density (308.15 K, x2 = 0.1999) was 966.98 ± 0.22 kg/m3 and the mass density (308.15 K, x2 = 0.25) was 977.75 ± 0.21 kg/m3. For the same compound, the mass density (308.15 K, x2 = 0.3002) was 989.03 ± 0.2 kg/m3 and the mass density (308.15 K, x2 = 0.3501) was 1000.72 ± 0.2 kg/m3.
